# Counter-ions that a name gives are not always drawn. Non-standard residues stand in square brackets, D forms with d. Residues, ends and D or L forms follow the SMILES beside them. *: point of attachment. Galloyl = O=C(c1cc(O)c(O)c(O)c1)*; Dap = NC[C@H](N)C(=O)O
# Experiments:
# [1] = test system: UEA-1 binding sites on Caco-2 cell membrane preparations; test: Two tier competition assay: compound incubated alone with membranes, biotinylated UEA-1 added in next step; design: species or system human; conditions: for Avg % Inhibition / Av % Inhibition: Two Tier Assay; for Avg % Inhibition: library MSI 26; for Av % Inhibition: library MSI 22
# Experimental: (§1) The epithelial cell binding ability of compounds and mixtures obtained from synthetic combinatorial libraries was determined by competition assays. These assays were set up to measure the inhibition of binding of biotinylated UEA-1 to membrane preparations of the epithelial cell line Caco-2 (colon carcinoma cells-2), by compounds and mixtures of the combinatorial libraries. This cell line is a conventional model for epithelial cells.
# (§2) Two competition inhibition assays were used in this case, namely single tier and two tier assays. These assays differed from each other in that in the single tier assay, the mixtures/compounds and the biotinylated UEA-1 were incubated together with the Caco-2 cell membrane preparations, while in case of the two-tier assay, the mixture/compounds were allowed to incubate alone with the cell membranes in the absence of biotinylated UEA-1, which was added in the next step. Addition of the extra step in the two-tier assay was to ensure that the compounds inhibiting the binding of biotinylated UEA-1 to the Caco-2 cell membranes were doing so by themselves binding to surface receptors on the Caco-2 cells and not to the biotinylated UEA-1. Each assay will be described in detail.
# (§3) • 1. Confluent Caco-2 cell monolayers (grown in 75 cm^2 flasks for up to 1 week at 37° C. and 5% CO2) were washed twice in Dulbecco's PBS (DPBS). • 2. Cell monolayers were treated with 10 mM EDTA-DPBS for 5–10 min at 37° C. and cells were harvested by centrifugation at 1000 rpm for 5 min. • 3. Cells were washed 3 times in DPBS. • 4. […] The cells were homogenised for 30 sec. • 6. The homogenates were centrifuged in hard walled tubes at 40,000 rpm for 45 min at 4° C. • 7. […] The supernatant was removed and stored on ice. The procedure was repeated adding the second supernatant to the first. • 8. The protein concentration was determined using e.g. a Bio-Rad protein assay. • 9. All fractions were stored at −80° C. prior to use. Single Tier Assays: • 1. 96-well microtiter plates were coated with membrane preparations of Caco-2 cells either by allowing them to incubate on the plates for 2½ hours at room temperature or by incubating them overnight at 4° C. 100 μl of 10 μg/ml (in 0.05 M carbonate buffer, pH 9.6) of membrane preparation was added to each well. • 2. The plates were flicked out, patted dry and blocked with bovine serum albumin (BSA)/DPBS (200 μl/well) for 1 to 4 hours at room temperature after which they were washed three times in water. • 3. […] Control wells were also set up in which the Caco-2 cell membrane preparations were incubated with unconjugated UEA-1. […] Following overnight incubation the plates were washed thoroughly (3–6 times). The plates were flicked out, patted dry and biotinylated UEA-1 was detected with commercial Streptavidin conjugated to horseradish peroxidase (HRP) (CalBiochem). […] The plates were left to incubate for an hour at room temperature. • 6. The plates were then washed 3–6 times and the biotin-streptavidin binding was detected by adding an HRP substrate OPD (orthophenyl diamine) to each well. 100 μl/well of this substrate at a final concentration of 1.6 mg/ml was added to each well. Before adding to the wells, this substrate was activated by addition of 50 μl of 3% H2O2 per plate and the reaction was allowed to develop in the dark. • 7. The reaction was stopped by adding 50 μl of 4 N H2SO4 to each well after approximately 5–10 minutes or when sufficient colour had developed. The OD490 (absorbance at 490 nm) of each well was measured using a conventional 96 well plate reading spectrophotometer. Two Tier Assays: • 1. 96 well plates were coated with Caco-2 cell membrane preparations in the same manner as described in the single tier assay. • 2. […] 100 μl at these final concentrations were added to each well. • 4. The plates were then left to incubate overnight, a step that would allow the mixtures and compounds to interact with the Caco-2 cell membranes without the presence of the competitor (biotinylated UEA-1) itself. • 5. […]
# [2] = test system: UEA-1 binding sites on Caco-2 cell membrane preparations; test: Single tier competition assay: inhibition of biotinylated UEA-1 binding, compound and biotinylated UEA-1 incubated together; design: species or system human; conditions: for Avg % Inhibtion / Av % Inhibition: Single Tier Assay; for Avg % Inhibtion: library MSI 26; for Av % Inhibition: library MSI 22
# Experimental: as §1, §2, §3
# [3] = Table 8, galloyl constructs, read-out: IC 50 (uM) 2nd tier
# [4] = Table 8, galloyl constructs, read-out: IC 50 (uM) 1st tier (converted)
# [5] = library MSI 27, read-out: Two Tier Assay IC50
# [6] = library MSI 27, read-out: Single Tier Assay IC50
SMILES,"IC 50 (ug/ml) 2nd tier ([1]; Table 8, galloyl constructs)","IC50 [1, 3]","IC 50 (ug/ml) 1st tier ([2]; Table 8, galloyl constructs)","IC50 [2, 4]","IC50 [1, 5]","IC50 [2, 6]",other results
CC(=O)N[C@H](CCCCNC(=O)c1cc(O)c(O)c(O)c1)C(=O)N[C@H](CCCCNC(=O)c1cc(O)c(O)c(O)c1)C(=O)N[C@H](CCCCNC(=O)c1cc(O)c(O)c(O)c1)C(=O)N[C@H](CCCCNC(=O)c1cc(O)c(O)c(O)c1)C(=O)N[C@H](CCCCNC(=O)c1cc(O)c(O)c(O)c1)C(N)=O [MSI 30 #8] (Ac-[dK](Galloyl)[dK](Galloyl)[dK](Galloyl)[dK](Galloyl)[dK](Galloyl)-NH2),15 µg/mL,10 µM,70 µg/mL,48 µM,–,–,–
NC(=O)C(CCCNC(=O)C(CCCNC(=O)c1cc(O)c(O)c(O)c1)NC(=O)c1cc(O)c(O)c(O)c1)NC(=O)C(CCCNC(=O)c1cc(O)c(O)c(O)c1)NC(=O)c1cc(O)c(O)c(O)c1 (centres unmarked) [MSI 34 #7],1 µg/mL,1 µM,0.9 µg/mL,0.9 µM,–,–,–
COc1cc(C(=O)NCCCCC(NC(C)=O)C(N)=O)cc(OC)c1OC (centres unmarked) [Cpd 12],–,–,–,–,655 µM,655 µM,–
NC(=O)[C@H](CNC(=O)c1cc(O)c(O)c(O)c1)NC(=O)c1cc(O)c(O)c(O)c1 [MSI 34 #1],0.8 µg/mL,2 µM,1 µg/mL,4 µM,–,–,–
NC(=O)C(CCNC(=O)c1cc(O)c(O)c(O)c1)NC(=O)C(CCNC(=O)c1cc(O)c(O)c(O)c1)NC(=O)C(CCNC(=O)c1cc(O)c(O)c(O)c1)NC(=O)c1cc(O)c(O)c(O)c1 (centres unmarked) [MSI 34 #18],0.9 µg/mL,1 µM,3 µg/mL,3 µM,–,–,–
CCOc1cc(C(=O)NCCCC[C@@H](NC(=O)[C@@H](CCCCNC(=O)c2cc(OCC)c(OCC)c(OCC)c2)NC(=O)[C@@H](CCCCNC(=O)c2cc(OCC)c(OCC)c(OCC)c2)NC(=O)c2cc(OCC)c(OCC)c(OCC)c2)C(N)=O)cc(OCC)c1OCC [Cpd 43],–,–,–,–,186 µM,186 µM,–
NC(=O)C(CCCNC(=O)c1cc(O)c(O)c(O)c1)NC(=O)C(CCCNC(=O)c1cc(O)c(O)c(O)c1)NC(=O)C(CCCNC(=O)c1cc(O)c(O)c(O)c1)NC(=O)c1cc(O)c(O)c(O)c1 (centres unmarked) [MSI 34 #19],1 µg/mL,1 µM,11 µg/mL,11 µM,–,–,–
NC(=O)C(CCCCNC(=O)C(CCCCNC(=O)C(CCCCNC(=O)c1cc(O)c(O)c(O)c1)NC(=O)c1cc(O)c(O)c(O)c1)NC(=O)C(CCCCNC(=O)c1cc(O)c(O)c(O)c1)NC(=O)c1cc(O)c(O)c(O)c1)NC(=O)C(CCCCNC(=O)C(CCCCNC(=O)c1cc(O)c(O)c(O)c1)NC(=O)c1cc(O)c(O)c(O)c1)NC(=O)C(CCCCNC(=O)c1cc(O)c(O)c(O)c1)NC(=O)c1cc(O)c(O)c(O)c1 (centres unmarked) [MSI 30 #17],1st tier = 52nd tier = 5 ug/ml,2 µM,1st tier = 52nd tier = 5 ug/ml,2 µM,–,–,–
"O=C(O[C@@H]1Cc2c(O)cc(O)cc2O[C@H]1c1cc(O)c(O)c(O)c1)c1cc(O)c(O)c(O)c1 [Gallocatechin gallate, reference compound]",–,–,–,–,–,–,Avg % Inhibition ([1]; 62.5 μg/ml): 7%; Avg % Inhibition ([1]; 250 μg/ml): 14.1%; Avg % Inhibtion ([2]; 62.5 μg/ml): 54.6%; Avg % Inhibtion ([2]; 250 μg/ml): 33.6%
CCOc1cc(C(=O)NCCCCC(NC(=O)c2cc(OCC)c(OCC)c(OCC)c2)C(N)=O)cc(OCC)c1OCC (centres unmarked) [Cpd 3],–,–,–,–,405 µM,405 µM,–
"CCC[C@H](CNC)N(C)C[C@@H](CC1CCCCC1)NC(=O)c1cc(O)c(O)c(O)c1 [D-Nve, D-chAla, Gallic Acid]",–,–,–,–,–,–,Av % Inhibition ([1]; 62.5 μg/ml): 20.6%; Av % Inhibition ([1]; 250 μg/ml): 48.5%; Av % Inhibition ([2]; 62.5 μg/ml): 22.0%; Av % Inhibition ([2]; 250 μg/ml): 47.8%
CCOc1cc(C(=O)NCCCCC(NC(=O)C(CCCCNC(=O)c2cc(OCC)c(OCC)c(OCC)c2)NC(=O)C(CCCCNC(=O)c2cc(OCC)c(OCC)c(OCC)c2)NC(C)=O)C(N)=O)cc(OCC)c1OCC (centres unmarked) [Cpd 51],–,–,–,–,217 µM,217 µM,–
NC(=O)C(CCCCNC(=O)c1ccc(O)cc1)NC(=O)c1ccc(O)cc1 (centres unmarked) [Cpd 7],–,–,–,–,649 µM,649 µM,–
CC(=O)N[C@@H](CNC(=O)c1cc(O)c(O)c(O)c1)C(=O)N[C@@H](CNC(=O)c1cc(O)c(O)c(O)c1)C(=O)N[C@@H](CNC(=O)c1cc(O)c(O)c(O)c1)C(=O)N[C@@H](CNC(=O)c1cc(O)c(O)c(O)c1)C(N)=O [MSI 34 #21] (Ac-[Dap](Galloyl)[Dap](Galloyl)[Dap](Galloyl)[Dap](Galloyl)-NH2),1 µg/mL,1 µM,2 µg/mL,2 µM,–,–,–
NC(=O)C(CCCCNC(=O)c1cc(O)c(O)c(O)c1)NC(=O)C(CCCCNC(=O)c1cc(O)c(O)c(O)c1)NC(=O)c1cc(O)c(O)c(O)c1 (centres unmarked) [Cpd 30],5 µg/mL,7 µM,14 µg/mL,19 µM,11.5 µM,35.5 µM,Two Tier Assay IC50 ([1]; library MSI 27): 8.36 µg/mL; Single Tier Assay IC50 ([2]; library MSI 27): 25.89 µg/mL
NC(=O)[C@@H](CCCCNC(=O)c1cc(O)cc(O)c1)NC(=O)[C@@H](CCCCNC(=O)c1cc(O)cc(O)c1)NC(=O)[C@@H](CCCCNC(=O)c1cc(O)cc(O)c1)NC(=O)c1cc(O)cc(O)c1 [Cpd 48],–,–,–,–,264 µM,264 µM,–
COc1ccc(C(=O)NCCCCC(NC(=O)c2ccc(OC)c(OC)c2)C(N)=O)cc1OC (centres unmarked) [Cpd 2],–,–,–,–,204 µM,271 µM,Two Tier Assay IC50 ([1]; library MSI 27): 96.44 µg/mL; Single Tier Assay IC50 ([2]; library MSI 27): 128.20 µg/mL
CCOc1cc(C(=O)NCCCCC(NC(=O)C(CCCCNC(=O)c2cc(OCC)c(OCC)c(OCC)c2)NC(=O)c2cc(OCC)c(OCC)c(OCC)c2)C(N)=O)cc(OCC)c1OCC (centres unmarked) [Cpd 27],–,–,–,–,255 µM,255 µM,–
NC(=O)[C@@H](CCCCNC(=O)c1cc(O)c(O)c(O)c1)NC(=O)[C@@H](CCCCNC(=O)c1cc(O)c(O)c(O)c1)NC(=O)[C@@H](CCCCNC(=O)c1cc(O)c(O)c(O)c1)NC(=O)[C@@H](CCCCNC(=O)c1cc(O)c(O)c(O)c1)NC(=O)[C@@H](CCCCNC(=O)c1cc(O)c(O)c(O)c1)NC(=O)[C@@H](CCCCNC(=O)c1cc(O)c(O)c(O)c1)NC(=O)[C@@H](CCCCNC(=O)c1cc(O)c(O)c(O)c1)NC(=O)c1cc(O)c(O)c(O)c1 [MSI 30 #16] (Galloyl-[dK](Galloyl)[dK](Galloyl)[dK](Galloyl)[dK](Galloyl)[dK](Galloyl)[dK](Galloyl)[dK](Galloyl)-NH2),8 µg/mL,4 µM,19 µg/mL,9 µM,–,–,–
COc1ccc(C(=O)NCCCCC(NC(=O)c2ccc(OC)c(OC)c2)C(=O)NCCCCC(NC(=O)C(CCCCNC(=O)c2ccc(OC)c(OC)c2)NC(=O)c2ccc(OC)c(OC)c2)C(N)=O)cc1OC (centres unmarked) [Cpd 18],–,–,–,–,85.3 µM,105 µM,Two Tier Assay IC50 ([1]; library MSI 27): 90.21 µg/mL; Single Tier Assay IC50 ([2]; library MSI 27): 111.30 µg/mL
"COc1cc(C(=O)OCCCN2CCCN(CCCOC(=O)c3cc(OC)c(OC)c(OC)c3)CC2)cc(OC)c1OC [Dilazep dihydrochloride, reference compound]",–,–,–,–,–,–,Avg % Inhibition ([1]; 62.5 μg/ml): −25%; Avg % Inhibition ([1]; 250 μg/ml): −25%; Avg % Inhibtion ([2]; 62.5 μg/ml): 14.7%; Avg % Inhibtion ([2]; 250 μg/ml): 10.4%

# — patent US7166296B2, “Pharmaceutical formulations and ligands for use therein; mimetics for UEA-1” (Sarlan, Ltd., priority 2001, dated 2007)
